Laboratory results reported in paper PMC8740778, “Translational Pharmacokinetic–Pharmacodynamic Modeling of NaV1.7 Inhibitor MK-2075 to Inform Human Efficacious Dose” (Frontiers in Pharmacology, 2021).
Marks after values point to notes of the source that are not given here.

Legend:
BALB/c male mice = experiment: Mouse tail flick latency; assay type: in vivo; conditions: at clinical efficacious concentrations
[1] = trough plasma concentration just prior to patient-controlled subsequent dose; postoperative pain; ref Dahlstrom et al., 1982 (morphine), Lehmann et al., 1990 (tramadol); cited from earlier work
[2] = design: method as in Rothenberg et al., 2019; conditions: healthy volunteers; no exposure-related pattern; ref Rothenberg et al., 2019; cited from earlier work

| SMILES | Percent of the maximum possible effect in mouse tail flick latency (BALB/c male mice) | Clinical MEC, mean (range) [1] | Hyposmia (reduced sense of smell) in clinical study [2] |
| --- | --- | --- | --- |
| COc1cccc(C2(O)CCCCC2CN(C)C)c1 (centres unmarked) [Tramadol] | approximately 50% | 1.092 (0.077–3.744) ^c µM |  |
| CN1CC[C@]23c4c5ccc(O)c4O[C@H]2[C@@H](O)C=C[C@H]3[C@H]1C5 [Morphine] | approximately 50% | 0.074 (0.032–0.116) ^b µM |  |
| O=C(NS(=O)(=O)N1CCC1)c1cc(C2CC2)c(OCC23CC4CC(CC(C4)C2)C3)cc1F [GDC-0276] |  |  | a couple of incidents of hyposmia were reported |
